{
  "source": "paper PMC6399351",
  "about": "“Cationic Intrinsically Disordered Antimicrobial Peptides (CIDAMPs) Represent a New Paradigm of Innate Defense with a Potential for Novel Anti-Infectives” (Scientific Reports, 2019)",
  "key": {"[1]": {"test_system": "Cryptococcus neoformans ATCC 208821", "test": "CO-ADD MIC, antifungal assay (CLSI)", "format": "cell-based", "conditions": "Yeast Nitrogen Base broth, 24 h 35 °C, by CO-ADD", "experimental": "(§1) Fungi strains were cultured for 3 days on Yeast Extract-Peptone Dextrose (YPD) agar at 30 °C. A yeast suspension of 1 × 10^6 to 5 × 10^6 cells/mL (as determined by OD530) was prepared from five colonies. These stock suspensions were diluted with Yeast Nitrogen Base (YNB) broth to a final concentration of 2.5 × 10^3 CFU/mL. […] Plates were covered and incubated at 35 °C for 24 h without shaking."}, "[2]": {"test_system": "Candida albicans ATCC 90028", "test": "CO-ADD MIC, antifungal assay (CLSI)", "format": "cell-based", "conditions": "Yeast Nitrogen Base broth, 24 h 35 °C, by CO-ADD", "experimental": "as §1"}, "[3]": {"test_system": "Streptococcus pyogenes ATCC 12344", "test": "CFU assay of antimicrobial activity", "format": "cell-based", "conditions": "10 mM NaP, pH 7.3, 1% TSB", "experimental": "(§2) All purified peptides and recombinant proteins were applied using a colony forming unit (CFU) assay in different media. Bacteria were grown to early log-phase in BHI, washed either with 10 mM Na-P, pH 7.4/1% TSB or pH 5.5/1% TSB, or pH 5.5 without TSB or BHI, and adjusted to a concentration of 10^4–10^5 colony forming units (CFU)/ml. For cell number control, 100 µl aliquots were diluted 1:10, 1:100 and 1:1000 and plated in duplicates on BHI agar plates. To 100 µl aliquots of the bacteria, suspended in the respective medium (10 mM Na-P buffer pH 7,0–7,4/ 1% (w/v) TSB; […]; 10 mM Na-P buffer pH 7,0–7,4/ 1% (w/v) TSB pH 7,0–7,4/ 0,25% (w/v) glucose; 10 mM Na-P buffer pH 5,5/ 0,25% (w/v) glucose, respectively), 10 µl of a solution of the peptide or protein (two-fold dilutions, from 300 µg/ml or 150 µg/ml down to 19 ng/ml), dissolved in 0.01% (v/v) acetic acid, were added.\n(§3) Then bacteria were incubated for 2 h at ambient temperature, if not otherwise stated. 10 µl of 0.01% (v/v) acetic acid, added to 100 µl aliquots of the bacteria in the respective medium, served as negative control. From each test, 1:10 and 1:100 dilutions were generated and plated as duplicates of 100 µl aliquots on BHI agar plates. After 16 h incubation at 37 °C, CFU were counted using a colony counter (Bio Kobe, Japan) and expressed as mean of the duplicate estimation to achieve a complete dose-response curve. All experiments were performed at serial dilutions in a concentration range of 100 µg/mL −25 ng/mL for recombinant HRNR fragments and 300 or 150 µg/mL–19 ng/mL for synthetic peptides."}, "[4]": {"test_system": "Streptococcus pneumoniae ATCC 33400", "test": "CFU assay of antimicrobial activity", "format": "cell-based", "conditions": "10 mM NaP, pH 7.3, 1% TSB", "experimental": "as §2, §3"}, "[5]": {"test_system": "Staphylococcus hominis ATCC 27844", "conditions": "CFU assay, 10 mM NaP, pH 7.3, 1% TSB"}, "[6]": {"test_system": "Peptostreptococcus magnus ATCC 15794", "test": "CFU assay of antimicrobial activity", "format": "cell-based, Peptostreptococcus magnus (now Finegoldia magna)", "conditions": "10 mM NaP, pH 7.3, 1% TSB", "experimental": "All purified peptides and recombinant proteins were applied using a colony forming unit (CFU) assay in different media. Bacteria were grown to early log-phase in BHI, washed either with 10 mM Na-P, pH 7.4/1% TSB or pH 5.5/1% TSB, or pH 5.5 without TSB or BHI, and adjusted to a concentration of 10^4–10^5 colony forming units (CFU)/ml. For cell number control, 100 µl aliquots were diluted 1:10, 1:100 and 1:1000 and plated in duplicates on BHI agar plates. To 100 µl aliquots of the bacteria, suspended in the respective medium (10 mM Na-P buffer pH 7,0–7,4/ 1% (w/v) TSB; 10 mM Na-P buffer pH 5,5/ 1% (w/v) TSB; 10 mM Na-P buffer pH 7,0–7,4/ 1% (w/v) TSB pH 7,0–7,4/ 0,25% (w/v) glucose; 10 mM Na-P buffer pH 5,5/ 0,25% (w/v) glucose, respectively), 10 µl of a solution of the peptide or protein (two-fold dilutions, from 300 µg/ml or 150 µg/ml down to 19 ng/ml), dissolved in 0.01% (v/v) acetic acid, were added.\nThen bacteria were incubated for 2 h at ambient temperature, if not otherwise stated. 10 µl of 0.01% (v/v) acetic acid, added to 100 µl aliquots of the bacteria in the respective medium, served as negative control. […] After 16 h incubation at 37 °C, CFU were counted using a colony counter (Bio Kobe, Japan) and expressed as mean of the duplicate estimation to achieve a complete dose-response curve. […]"}, "E. coli ATCC 25922": {"test_system": "E. coli ATCC 25922", "test": "CO-ADD MIC, broth microdilution (CLSI)", "format": "cell-based, Escherichia coli", "conditions": "Mueller–Hinton broth, 5 × 10^5 CFU/mL, 18 h 37 °C, by CO-ADD", "from_the_text": "They were defined as the lowest peptide\nFurther details of the screening"}},
  "note": "Peptide text beside a SMILES is read from it. * marks the point of attachment. Palmitoyl = CCCCCCCCCCCCCCCC(=O)*",
  "data": [
    {"smiles": "CCCCCCCCCCCCCCCC(=O)NCC(=O)N[C@@H](CCCNC(=N)N)C(=O)N[C@@H](CCCNC(=N)N)C(=O)NCC(=O)NCC(=O)N[C@@H](CCCNC(=N)N)C(=O)NCC(=O)NCC(=O)N[C@@H](CCCNC(=N)N)C(=O)NCC(=O)N[C@@H](CCCNC(=N)N)C(=O)NCC(=O)N[C@@H](CCCNC(=N)N)C(=O)O", "note": "[Pal-GR13] (Palmitoyl-GRRGGRGGRGRGR-OH)", "values": [
      {"measurement": "Minimal inhibitory concentration (MIC)", "setting": "[1]", "result": 0.25, "unit": "µg/mL"},
      {"measurement": "Minimal inhibitory concentration (MIC)", "setting": "[2]", "result": 4, "unit": "µg/mL"},
      {"measurement": "LD90", "setting": "[3]", "result": 0.15, "unit": "µg/mL"},
      {"measurement": "LD90", "setting": "[4]", "result": 2.35, "unit": "µg/mL"},
      {"measurement": "LD90", "setting": "[5]", "result": 1.18, "unit": "µg/mL"},
      {"measurement": "LD90", "setting": "[6]", "result": 4.7, "unit": "µg/mL"},
      {"measurement": "Minimal inhibitory concentration (MIC)", "setting": "E. coli ATCC 25922", "result": 4, "unit": "µg/mL"}
    ]}
  ]
}
